According to patent US7618984B2, “Sulfonamide compound” (Asahi Kasei Pharma Corporation, priority 2005, dated 2009):
pIC50: −log10 of the molar value. Where a name gives a salt, the structure may show the parent alone.

Key:
[1] = system: phosphorylation of myosin regulatory light chain; test: Inhibitory action on phosphorylation of myosin regulatory light chain (Test Example 1); assay type: cell-based; conditions: Neutrophil, 5 min; human peripheral blood neutrophils, 25° C. for 5 minutes; read-out: IC50, compound concentration providing a phosphorylation inhibition ratio of 50% (myosin regulatory light chain)
Protocol: A volume of 50 to 100 ml of peripheral blood collected from healthy volunteers was centrifuged by using Mono-Poly separator solution (Dainippon Pharmaceutical) to prepare a neutrophil containing fraction. The neutrophils were washed with PBS(−) and resuspended in Hanks' Balanced Salt Solution (HBSS+, Gibco) to prepare a cell suspension (8×10^6/ml). The cell suspension was diluted to 5×10^6/ml, introduced into Eppendorf tubes in a volume of 0.4 ml each, then 0.1 ml each of solutions of a test compound at various concentrations were added to the suspension and allowed to react at 25° C. for 5 minutes. After the reaction, 0.1 ml of trichloroacetic acid solution was added to each reaction mixture, the reaction mixture was gently shaken and centrifuged at 12,000 rpm (4° C., 5 minutes), and the supernatant was removed. Subsequently, 3 μl of 1 M Tris solution was added to the residue, the mixture was further mixed with 50 μl of extraction buffer (8 M urea, 0.02% 2-mercaptoethanol, 0.002% bromophenol blue) and left stand at room temperature for 1 hour. Then, the reaction mixture was loaded on a spin column (0.45 μm, Millipore) to remove the insoluble solids and a sample buffer for SDS polyacrylamide gel electrophoresis (25 mM, Tris-HCl pH 6.8, 2.5% 2-mercaptoethanol, 2% sodium dodecylsulfate, 5% sucrose, 0.002% bromophenol blue as final concentrations) was added, and 10 μl of each sample was subjected to electrophoresis.
The gel after the electrophoresis was blotted on a nitrocellulose membrane (BioRad), blocked with 5% skim milk, and reacted successively with antibodies pLC1 (Sakurada K. et al, Am. J. Physiol., 274, C1563-C1572 (1998)), which specifically recognize the phosphorylated myosin regulatory light chain, and donkey anti-mouse IgG (Chemicon) conjugated with horseradish peroxidase. The band of the phosphorylated myosin regulatory light chain was detected on a film by using ECL Plus Kit (Amersham Pharmacia Biotech). This band was subjected to quantification using a densitometer. By using this value, the inhibitory ratio (%) for phosphorylation of the myosin regulatory light chain was calculated by using the following equation. Phosphorylation inhibition ratio(%)=1−(Band intensity of phosphorylated myosin regulatory light chain with addition of the test compound/Band intensity of phosphorylated myosin regulatory light chain without addition of the test compound)×100
Further, the phosphorylation inhibition ratio was calculated with changing the concentrations of the test compound, and a compound concentration providing an inhibition ratio of 50% was obtained as IC50.

[2] = system: rabbit normal intraocular pressure; test: Intraocular pressure reducing action (Test Example 2); assay type: in vivo, Japanese white rabbit; conditions: Oryctolagus cuniculus, topical; 3 mM aqueous solution, 50 μl to the left eye; measured after 2, 4 and 6 hours; read-out: intraocular pressure reducing degree (max ΔIOP / intraocular pressure value immediately before administration × 100)
Protocol: A Japanese white rabbit having a body weight of about 2 kg was placed in a positioner and naturalized for one week before the experiment. An opthalmologic local anesthesant (Benoxil) was administered to both eyes, and then intraocular pressure was measured by using a tonometer (Classic 30, Solan). A 3 mM aqueous solution of a test compound was administered in a volume of 50 μl to the left eye, and the right eye was not treated (control eye). The intraocular pressure values were measured for the left and right eyes immediately before, and 2, 4 and 6 hours after the administration of the aqueous solution of the test compound, and the difference of the measured values for the left and right eyes was considered an intraocular pressure reduction value of the test medicament at each measurement time. The largest difference of the values for the left and right eyes among the measured values at the measurement times (after 2, 4 and 6 hours) was considered the maximum intraocular pressure reduction value (max ΔIOP) of each test medicament. The intraocular pressure reducing degree representing the intraocular pressure reducing action of each test medicament was calculated according to the following formula. Since rabbits show significant daily variation of intraocular pressure, daily variation is added when change of intraocular pressure is measured over time, and the intraocular pressure reducing action may be overestimated. Therefore, we used this calculation method of intraocular pressure reduction value in order to minimize the influence of the variation. Intraocular pressure reducing degree (%)=(max ΔIOP/Intraocular pressure value immediately before administration)×100

[3] = system: neutrophils; test: Neutrophil migration inhibitory action, Boyden Chamber, FMLP (Test Example 3); assay type: cell-based; conditions: 0.5 h, human neutrophils, FMLP 1 μM, 37° C., 30 minutes, read-out: IC50, compound concentration providing a migration inhibition ratio of 50%
Protocol: Neutrophils were isolated from 50 to 100 ml of peripheral blood collected from healthy human donors by the method described in Test Example 1 to obtain a cell suspension (8×10^6/ml). Subsequently, solutions of a test compound at various concentrations were introduced into wells of a 96-well plate in a volume of 125 μl per well, the cell suspension of an equivalent volume was added to it and the plate was preincubated at room temperature for 5 minutes. During the preincubation, FMLP (1 μM, Sigma) solution was added to the lower chamber to set Boyden Chamber, the preincubated cell suspension was added to the upper chamber in a volume of 200 μl per well, and the cells were allowed to migrate at 37° C. under 5% carbon dioxide for 30 minutes. The filter after the migration was collected, and the non-migrated cells adhered to the surface that faced the upper chamber were carefully wiped off. Then, the migrated cells on the back surface were stained with DifQuick dye solution (International Reagents), washed with water and dried, and then absorbance was measured at 595 nm. The inhibition ratio against migration (%) of a test compound was calculated by using the following equation: Migration inhibition ratio(%)=(1−Absorbance of the group with addition of test compound/Absorbance of the group without addition of test compound)×100
Further, the migration inhibitory ratio was calculated with changing the test compound concentration, and a compound concentration providing an inhibition ratio of 50% was obtained as IC50.

[4] = system: rabbit intraocular pressure; test: Rabbit intraocular pressure reduction enhancing action, combination use (Test Example 6-1); assay type: in vivo, Japanese white rabbit; conditions: 50 μL, difference of left and right eyes, 2, 4 and 6 hours
Protocol: However, the effect is not limited to the 19-1 compound, and the ophthalmic solution concentration of the 19-1 compound is not limited to those used in this test example. Moreover, as for the test compound used for combination use, similar effect can be obtained also with the compounds of the present invention represented with the example numbers mentioned in Test Example 2.
As a test compound, the 19-1 compound was dissolved in physiological saline, and the solution was neutralized by addition of sodium hydroxide (pH 7.0 to 8.0) to prepare a 0.01 weight % aqueous solution (19-1 compound aqueous solution). As the drugs for combination use, isopropyl unoprostone (trade name: Rescula, Santen Pharmaceutical) was used as a prostaglandin-related drug, and brinzolamide hydrochloride (trade name: Azopt, Alcon Japan) was used as […], as the marketed formulations as they were.
A Japanese white rabbit having a body weight of about 2 kg was placed in a positioner and naturalized for one week before the experiment. An opthalmologic local anesthesant (Benoxil) was administered to both eyes, and then intraocular pressure before instillation was measured by using a tonometer (Classic 30, Solan). A test aqueous solution or the drug for combination use was administered to the left eye, and the right eye was not treated (control eye). The test groups consisted of (1) control group, (2) group instilled only with the 19-1 compound aqueous solution (single drug group 1), (3) group instilled only with the drug for combination use (single drug group 2), and (4) group instilled with the drug for combination use and the 19-1 compound aqueous solution (combination use group), and six rabbits were used for each group. As for the rabbits of these groups, 50 μL of physiological saline was first instilled to the control group, single drug group 1, and single drug group 2, and the drug for combination use was first instilled in the same volume to the combination use group. […] The intraocular pressure thereafter was measured for each group 2, 4 and 6 hours after the second administration of the test compound, and the difference of the measured values for the left and right eyes at each measurement time was considered an intraocular pressure reduction value of each group. The largest difference of the intraocular pressure values for the left and right eyes among those of the measured values of the measurement times was considered the maximum intraocular pressure reduction value (max ΔIOP) of each drug group.

[5] = system: rabbit intraocular pressure; test: Rabbit intraocular pressure reduction enhancing action, combination with timolol maleate (Test Example 6-2); assay type: in vivo, Japanese white rabbit; conditions: 0.01 weight % 19-1 compound aqueous solution and/or timolol maleate (Timoptol), 50 μL; difference relative to the control group, 1, 2 and 4 hours
Protocol: As a test compound, the 19-1 compound was dissolved in physiological saline, and the solution was neutralized by addition of sodium hydroxide (pH 7.0 to 8.0) to prepare a 0.01 weight % aqueous solution (19-1 compound aqueous solution). As a drug for combination use, timolol maleate (trade name: Timoptol, Santen Pharmaceutical) was used as an adrenergic receptor β blocker, as the marketed formulation as it was.
A Japanese white rabbit having a body weight of about 2 kg was placed in a positioner and naturalized for one week before the experiment. An opthalmologic local anesthesant (Benoxil) was administered to both eyes, and then intraocular pressure before instillation was measured by using a tonometer (Classic 30, Solan). […] The intraocular pressure thereafter was measured for each group 1, 2 and 4 hours after the second administration of the test compound, and the difference of the measured values at each measurement time for the each group and the control group was considered an intraocular pressure reduction value of each group. The largest difference of the intraocular pressure values relative to the control group among those of the measured values of the measurement times was considered the maximum intraocular pressure reduction value (max ΔIOP) of each drug group.

With `Cc1cncc2cccc(S(=O)(=O)N3CCC[C@@H](N)C3)c12` [Example 22-2, (R)-3-Amino-1-(4-methyl-5-isoquinolinesulfonyl)piperidine] the pIC50 [1] was > 5.00, the inhibition in vivo at 3000 µM [2] was 10 to 20% and the pIC50 [3] was 4.40 to 5.00.

In the case of `CCc1cncc2cccc(S(=O)(=O)N3CC[C@H](N)C3)c12` [Example 23-1, (S)-3-Amino-1-(4-ethyl-5-isoquinolinesulfonyl)pyrrolidine], the pIC50 [1] was > 5.00, the inhibition in vivo at 3000 µM [2] was 10 to 20% and the pIC50 [3] was 4.40 to 5.00.

With `Cc1cnc(O)c2cccc(S(=O)(=O)N3CC[C@H](N)C3)c12` [Example 25-1, (S)-3-Amino-1-(1-hydroxy-4-methyl-5-isoquinolinesulfonyl)pyrrolidine] the pIC50 [1] was > 5.00, the inhibition in vivo at 3000 µM [2] was 10 to 20% and the pIC50 [3] was > 5.00.

For `Cc1cncc2cccc(S(=O)(=O)N3CC(N)C3)c12` [Example 26, 3-Amino-1-(4-methyl-5-isoquinolinesulfonyl)azetidine], the pIC50 [1] was > 5.00, the inhibition in vivo at 3000 µM [2] was 5 to 10% and the pIC50 [3] was 4.40 to 5.00.

For `CN[C@@H]1CCN(S(=O)(=O)c2cccc3cncc(C)c23)C1` [Example 27, (R)-3-(Methylamino)-1-(4-methyl-5-isoquinolinesulfonyl)pyrrolidine], the pIC50 [1] was > 5.00, the inhibition in vivo at 3000 µM [2] was 5 to 10% and the pIC50 [3] was 4.40 to 5.00.

For `CN[C@@H]1CCN(S(=O)(=O)c2cccc3cncc(Cl)c23)C1` [Example 32-2, (R)-1-(4-Chloro-5-isoquinolinesulfonyl)-3-(methylamino)pyrrolidine], the pIC50 [1] was > 5.00, the inhibition in vivo at 3000 µM [2] was 10 to 20% and the pIC50 [3] was 4.40 to 5.00.

For `CN[C@H]1CCN(S(=O)(=O)c2cccc3c(O)ncc(Cl)c23)C1` [Example 36-1, (S)-1-(1-Hydroxy-4-chloro-5-isoquinolinesulfonyl)-3-(methylamino)pyrrolidine], the pIC50 [1] was > 5.00, the inhibition in vivo at 3000 µM [2] was 10 to 20% and the pIC50 [3] was > 5.00.

For `CCN[C@H]1CN(CCCOC)S(=O)(=O)c2sc(S(N)(=O)=O)cc21` [brinzolamide hydrochloride, reference compound], the “Max ΔIOP (maximum intraocular pressure reduction value), Table 2” value ([4]; 0.01 weight % 19-1 compound aqueous solution and/or brinzolamide hydrochloride (Azopt)) was 2.3 mmHg.

In the case of `CCCCCCCC(=O)CC[C@@H]1[C@@H](C/C=C\CCCC(=O)OC(C)C)[C@@H](O)C[C@H]1O` [isopropyl unoprostone, reference compound], the “Max ΔIOP (maximum intraocular pressure reduction value), Table 3” value ([4]; 0.01 weight % 19-1 compound aqueous solution and/or isopropyl unoprostone (Rescula)) was 4.4 mmHg.

For `CC(C)(C)NC[C@H](O)COc1nsnc1N1CCOCC1` [timolol maleate, reference compound], the “Max ΔIOP (maximum intraocular pressure reduction value), Table 4” value [5] was 1.9 mmHg.
